Measured values as given in US6849598B1, “Therapeutic compositions comprising bactericidal/permeability-increasing (BPI) protein products” (XOMA, priority 1995, dated 2005).

Test system: P. aeruginosa (ATCC 19660)
Assay: Antibiotic susceptibility (MIC, Microscan® MIC Plus Type 2 panel) with rBPI21/P123 and EDTA
Format: cell-based
Design: key to susceptibility interpretation of MIC (superscript): R: resistant; I: intermediate; S: susceptible
Conditions: for effect of EDTA added to the rBPI21/P123 formulation on susceptibility of the strain to the antibiotic: summary of Table 17
Protocol: In additional experiments, a BPI protein product, rBPI21, was formulated with an anti-bacterial activity enhancing poloxamer, specifically PLURONIC P123, and with various concentrations of EDTA, and was evaluated for its effect on the antibiotic susceptibility of a Pseudomonas aeruginosa (ATCC 19660). Antibiotic susceptibility was determined using Microscan® panel plates (Dade Microscan, West Sacramento, Calif.) that allow simultaneous determination of minimum inhibitory concentrations for a number of different antibiotics.
The antimicrobial susceptibility tests performed on the Microscan® panel plates are miniaturizations of the broth dilution susceptibility test. Antimicrobial agents are serially diluted in Mueller-Hinton broth (supplemented with calcium and magnesium, or with sodium chloride for oxacillin, or with thymidine phosphorylase for trimethoprim, sulfamethoxazole and trimethoprim/ sulfamethoxazole) to concentrations bridging the range of clinical interest. One well on the 96-well Microscan® plate is a growth control well that contains dehydrated broth only. The remaining wells contain dehydrated broth and antibiotic (or broth and biochemical reagent indicator), which is rehydrated to the desired concentration by inoculation of a standardized suspension of test organism. The chromogenic biochemical agent indicators are used to identify and characterize the species of bacteria based on detection of pH changes and substrate utilization. […] Gram-negative and gram positive organisms may be tested using any of the Microscan® panel plates (Microscan®, Dade Microscan, West Sacramento, Calif.). In these experiments with P. aeruginosa, the MIC Plus Type 2 panel plates were used. The concentrations of antibiotics tested in this panel plate are shown below in Table 16. The antibiotic susceptibility standards (interpretation of an MIC as resistant, intermediate or susceptible according to Microscan®'s NCCLS-derived standards) applicable to the gram-negative organisms that may be tested in each panel plate appear below in Table 16A.
For these experiments with P. aeruginosa, the following procedure was performed: The organism was streaked onto TSA plates (Remel, Lenexa, Kans.) and incubated for 18-24 hours overnight. Well-isolated A, colonies from the plates were emulsified in 3 ml of sterile Inoculum Water d(catalog no. B1015-2, MicrosScan® system, Dade Microscan, West Sacramento, Calif.) to a final turbidity equivalent to 0.5 McFarland Barium Sulfate standard. This cell suspension was vortexed for 2 to 3 seconds and 100 μl was transferred to glass tubes containing 25 ml of Inoculum Water with Pluronic-D (catalog no. B1015-7, MicroScan® system, Dade Microscan, West Sacramento, Calif.) (hereinafter “Pluronic Inoculum Water”), or 25 ml of Pluronic Inoculum Water into which rBPI21 in 0.2% PLURONIC P123, 0.002% TWEEN 80, 5mM sodium citrate, 150 mM NaCl (“rBPI21/P123”) had been diluted to 64 μg/ml rBPI21.
The 25 ml of this inoculum containing rBPI21 was mixed by inversion and poured into a tray. The inoculum was drawn up into a manual 96-well pipetting system (RENOK^− rehydrator-inoculator system, Dade Microscan, West Sacramento, Calif.) designed for use with the Microscan® panel plates, and 110 μl of the inoculum was delivered to each well of a Microscan® MIC Plus Type 2 panel plate. When added to the wells, this inoculum achieves a final bacterial concentration of 4×10^5 to 7×10^5 CFU/ml. The panel plates were then incubated at 35° C. for 15-24 hours and read visually for cell growth.
No growth was defined as a slight whiteness in the well or a clear broth. Growth appeared as turbidity which could take the form of a white haze throughout the well, a white button in the center of the well, or a fine granule growth throughout the well. All wells were read against a black indirectly lighted background. Visual results of the biochemical reactions were read into a database for bacterial identification.

[1] = rBPI21/P123 at 64 μg/ml rBPI21, With 0% EDTA
[2] = rBPI21/P123 at 64 μg/ml rBPI21, With 0.01% EDTA
[3] = rBPI21/P123 at 64 μg/ml rBPI21, With 0.05% EDTA
[4] = rBPI21/P123 at 64 μg/ml rBPI21, With 0.1% EDTA

Row | Compound | Minimum Inhibitory Concentration of Antibiotic (Control (No BPI21)) [µg/mL] | susceptibility interpretation of MIC (superscript) (Control (No BPI21)) | Minimum Inhibitory Concentration of Antibiotic [1] [µg/mL] | susceptibility interpretation of MIC (superscript) [1] | Minimum Inhibitory Concentration of Antibiotic [2] [µg/mL] | susceptibility interpretation of MIC (superscript) [2] | Minimum Inhibitory Concentration of Antibiotic [3] [µg/mL] | susceptibility interpretation of MIC (superscript) [3] | Minimum Inhibitory Concentration of Antibiotic [4] [µg/mL] | susceptibility interpretation of MIC (superscript) [4] | effect of EDTA added to the rBPI21/P123 formulation on susceptibility of the strain to the antibiotic
1 | CC1(C)S[C@@H]2[C@H](NC(=O)[C@H](NC(=O)N3CCN(S(C)(=O)=O)C3=O)c3ccccc3)C(=O)N2[C@H]1C(=O)O [Mezlocillin] | < 16 | S | < 16 | S | < 16 | S | < 16 | S | < 16 | S | –
2 | CCN[C@@H]1C[C@H](N)[C@@H](O[C@H]2OC(CN)=CC[C@H]2N)[C@H](O)[C@H]1O[C@H]1OC[C@](C)(O)[C@H](NC)[C@H]1O [Netilmicin] | 4 | S | < 2 | S | < 2 | S | < 2 | S | < 2 | S | –
3 | CC1(C)S[C@@H]2[C@H](NC(=O)[C@H](C(=O)O)c3ccsc3)C(=O)N2[C@H]1C(=O)O [Ticarcillin] | < 16 | S | < 16 | S | < 16 | S | < 16 | S | < 16 | S | –
4 | Amoxicillin/K Clavulanate [Amox/K Clavulanate] | > 32 | R | > 32 | R | < 1 | S | 32 | R | < 1 | S | reversing resistance
5 | Ampicillin/Sulbactam [Amp/Sulbact] | > 32 | R | > 32 | R | < 1 | S | 16 | I | 16 | I | reversing resistance
6 | Ticarcillin/K Clavulanate [Ticar/K Clavulanate] | < 16 | S | < 16 | S | < 16 | S | < 16 | S | < 16 | S | –
